In brackets after ≈: the same amount, converted by molar mass. Like-named read-outs stand apart in the source and are kept apart here.
Experiments:
[1] = tested on: Enterococcus faecalis ATCC 51299 (vanA-positive; vancomycin-resistant); assay: In vitro antibacterial activity, MIC (UCL), VRE; type: cell-based
Description: (§1) Staphylococcus aureus NCTC 13373 (mecA-positive; methicillin-resistant, NCTC 13373) was supplied by the National Collection of Type Cultures (NCTC), Public Health England, United Kingdom. Other organisms, S. aureus ATCC 25923 (methicillin-susceptible) and Enterococcus faecalis ATCC 51299 (vanA-positive; vancomycin-resistant), were obtained from the American Type Culture Collection (ATCC) via LGC Standards, UK. A suspension of each organism was prepared from an overnight plate culture (tryptone soya agar) in phosphate-buffered saline (PBS) and adjusted to an absorbance reading at 600 nm of 0.1, which is approximately equivalent to 1 × 10^8 colony-forming units (CFU) per mL. The cultures were further diluted 1:100 in isosensitest broth (Oxoid, United Kingdom) before 100 μL was used to inoculate each well of a 96-well plate that contained diluted samples of the OSA series. Compounds were evaluated over a 2-fold dilution range from 32 to 0.03 μg/mL. Stocks of the samples were prepared in 100% DMSO at […] before being diluted in isosenstitest broth. The highest concentration of DMSO present was 2%, which has been previously shown not to inhibit the growth of the microorganisms (data not shown). […] Vancomycin was used as a quality control compound.

[2] = tested on: Staphylococcus aureus NCTC 13373 (mecA-positive; methicillin-resistant); assay: In vitro antibacterial activity, MIC (UCL School of Pharmacy assay), MRSA; type: cell-based; settings: for MIC: Staphylococcus aureus
Description: as §1

[3] = tested on: S. aureus ATCC 25923 (methicillin-susceptible); assay: In vitro antibacterial activity, MIC (UCL), MSSA; type: cell-based, Staphylococcus aureus; settings: for MIC: Staphylococcus aureus
Description: as §1

SMILES	MIC ([1]; read-out: VRE MIC (UCL)) [µg/mL]	MIC ([2]; UCL, read-out: MRSA MIC (UCL)) [µg/mL]	MRSA MIC [2] [µg/mL]	further results
COc1ccn2c(Nc3ccc(F)cn3)c(-c3ccccn3)nc2c1 [OSA_000839]	> 32	16 (≈ 47.7 µM)	–	–
Cc1ccn2c(NC3CCCC3)c(-c3ccc(N(C)C)cc3)nc2c1 [OSA_000840]	> 32	> 32	–	–
Cc1ccc2nc(-c3ccccn3)c(Nc3ccc4c(c3)OCCO4)n2c1 [OSA_000841]	16 (≈ 44.6 µM)	8 (≈ 22.3 µM)	–	–
Cc1ccc2nc(-c3ccccn3)c(NCc3ccccc3)n2c1 [OSA_000842]	32 (≈ 102 µM)	8 (≈ 25.4 µM)	–	MIC ([3]; read-out: MSSA MIC (UCL)): 4 µg/mL (≈ 12.7 µM)
COc1ccn2c(Nc3cccc(F)c3)c(-c3cscn3)nc2c1 [OSA_000843]	> 32	> 32	–	–
CN(C)Cc1ccc2nc(-c3ccccn3)c(Nc3cccc(F)c3)n2c1 [OSA_000844]	> 32	> 32	–	–
c1ccn2c(NC3CCCC3)c(-c3nccs3)nc2c1 [OSA_000845]	> 32	> 32	–	–
Cc1ccn2c(Nc3ccc(F)cc3)c(-c3ccc(N(C)C)cc3)nc2c1 [OSA_000846]	> 32	> 32	–	–
Cn1ccnc1-c1nc2ccccn2c1Nc1ccc(F)cc1 [OSA_000847]	> 32	> 32	–	–
COc1ccn2c(Nc3cccc(F)c3)c(-c3cn(C)cn3)nc2c1 [OSA_000848]	> 32	> 32	–	–
COc1ccc(-c2nc3ccc(C)cn3c2NCc2ccco2)cc1OC [OSA_000849]	> 32	> 32	–	–
c1ccc(-c2nc3ccccn3c2N2CCOCC2)nc1 [OSA_000850]	> 32	> 32	–	–
COc1ccn2c(Nc3ccccc3F)c(-c3ccccn3)nc2c1 [OSA_000851]	16 (≈ 47.9 µM)	8 (≈ 23.9 µM)	–	MIC ([3]; read-out: MSSA MIC (UCL)): 4 µg/mL (≈ 12 µM)
COCc1ccc2nc(-c3ccccn3)c(Nc3cccc(F)c3)n2c1 [OSA_000852]	> 32	> 32	–	–
COc1ccn2c(NCc3cn(C)cn3)c(-c3ccccn3)nc2c1 [OSA_000853]	> 32	> 32	–	–
COc1ccn2c(Nc3ccnc(C)c3)c(-c3ccccn3)nc2c1 [OSA_000854]	> 32	> 32	–	–
c1ccc(-c2nc3ncccn3c2-c2ccc3occc3c2)nc1 [OSA_000863]	> 32	> 32	–	–
COc1ccn2c(Nc3ccc4c(c3)OCCO4)c(-c3c[nH]cn3)nc2c1 [OSA_000866]	> 32	> 32	–	–
COc1ccc2nc(-c3c[nH]cn3)c(Nc3ccc4c(c3)OCCO4)n2c1 [OSA_000867]	> 32	> 32	–	–
c1cnc(-c2nc3n(c2-c2ccc4occc4c2)CCC3)cn1 [OSA_000873]	> 32	> 32	–	MIC ([3]; read-out: MSSA MIC (UCL)): > 32 µg/mL
c1ncc(-c2nc3n(c2-c2ccc4occc4c2)CCC3)cn1 [OSA_000874]	> 32	> 32	–	–
CC(=O)c1ccc(-c2c(-c3ccccn3)nc3n2CCC3)cc1 [OSA_000973]	> 32	> 32	–	–
Cc1ccccc1-c1c(-c2ccccn2)nc2n1CCC2 [OSA_000977]	32 (≈ 116 µM)	32 (≈ 116 µM)	–	–
COc1ccn2c(Nc3ccc(F)cn3)c(-c3ccccn3)nc2c1.O=CO [compound 839]	–	–	16	VRE MIC [1]: > 32 µg/mL
Cc1ccn2c(NC3CCCC3)c(-c3ccc(N(C)C)cc3)nc2c1 [compound 840]	–	–	> 32	VRE MIC [1]: > 32 µg/mL
Cc1ccc2nc(-c3ccccn3)c(Nc3ccc4c(c3)OCCO4)n2c1 [compound 841]	–	–	8	VRE MIC [1]: 16 µg/mL
Cc1ccc2nc(-c3ccccn3)c(NCc3ccccc3)n2c1 [compound 842]	–	–	8	VRE MIC [1]: 32 µg/mL; MSSA MIC [3]: 4 µg/mL

SMILES	MIC ([1]; read-out: VRE MIC (UCL)) [µg/mL]	MIC ([2]; UCL, read-out: MRSA MIC (UCL)) [µg/mL]	MRSA MIC [2] [µg/mL]	further results
COc1ccn2c(Nc3cccc(F)c3)c(-c3cscn3)nc2c1.O=CO [compound 843]	–	–	> 32	VRE MIC [1]: > 32 µg/mL
CN(C)Cc1ccc2nc(-c3ccccn3)c(Nc3cccc(F)c3)n2c1 [compound 844]	–	–	> 32	VRE MIC [1]: > 32 µg/mL
c1ccn2c(NC3CCCC3)c(-c3nccs3)nc2c1 [compound 845]	–	–	> 32	VRE MIC [1]: > 32 µg/mL
Cc1ccn2c(Nc3ccc(F)cc3)c(-c3ccc(N(C)C)cc3)nc2c1 [compound 846]	–	–	> 32	VRE MIC [1]: > 32 µg/mL
Cn1ccnc1-c1nc2ccccn2c1Nc1ccc(F)cc1 [compound 847]	–	–	–	MIC ([1]; read-out: VRE MIC): > 32 µg/mL; MIC ([2]; read-out: MRSA MIC): > 32 µg/mL
COc1ccn2c(Nc3cccc(F)c3)c(-c3cn(C)cn3)nc2c1 [compound 848]	–	–	> 32	VRE MIC [1]: > 32 µg/mL
COc1ccc(-c2nc3ccc(C)cn3c2NCc2ccco2)cc1OC.Cl [compound 849]	–	–	> 32	VRE MIC [1]: > 32 µg/mL
c1ccc(-c2nc3ccccn3c2N2CCOCC2)nc1 [compound 850]	–	–	> 32	VRE MIC [1]: > 32 µg/mL
COc1ccn2c(Nc3ccccc3F)c(-c3ccccn3)nc2c1 [compound 851]	–	–	8	VRE MIC [1]: 16 µg/mL; MSSA MIC [3]: 4 µg/mL
COCc1ccc2nc(-c3ccccn3)c(Nc3cccc(F)c3)n2c1 [compound 852]	–	–	> 32	VRE MIC [1]: > 32 µg/mL
COc1ccn2c(NCc3cn(C)cn3)c(-c3ccccn3)nc2c1.O=CO [compound 853]	–	–	> 32	VRE MIC [1]: > 32 µg/mL
COc1ccn2c(Nc3ccnc(C)c3)c(-c3ccccn3)nc2c1 [compound 854]	–	–	> 32	VRE MIC [1]: > 32 µg/mL
c1ccc(-c2nc3ncccn3c2-c2ccc3occc3c2)nc1 [compound 863]	–	–	> 32	VRE MIC [1]: > 32 µg/mL
N#Cc1cccc(-c2c(-c3ccccn3)nc3n2CCC3)c1 [compound 864]	–	–	–	MIC ([1]; read-out: VRE MIC): > 32 µg/mL; MIC ([2]; read-out: MRSA MIC): > 32 µg/mL
FC(F)(F)Oc1ccc(-c2c(-c3ccccn3)nc3n2CCC3)cc1 [compound 868]	–	–	–	MIC ([1]; read-out: VRE MIC): 32 µg/mL (≈ 92.7 µM); MIC ([2]; read-out: MRSA MIC): 8 µg/mL (≈ 23.2 µM)
c1cnc(-c2nc3n(c2-c2ccc4occc4c2)CCC3)cn1 [compound 873]	–	–	–	MIC ([1]; read-out: VRE MIC): > 32 µg/mL; activity against MRSA, in words [2]: inactive; MIC ([2]; read-out: MRSA MIC): > 32 µg/mL; MIC ([3]; read-out: MSSA MIC): > 32 µg/mL
c1ncc(-c2nc3n(c2-c2ccc4occc4c2)CCC3)cn1 [compound 874]	–	–	–	MIC ([1]; read-out: VRE MIC): > 32 µg/mL; activity against MRSA, in words [2]: inactive; MIC ([2]; read-out: MRSA MIC): > 32 µg/mL
Clc1ccc(-c2c(-c3ccccn3)nc3n2CCC3)cc1Cl [compound 876]	–	–	–	MIC ([1]; read-out: VRE MIC): 8 µg/mL (≈ 24.2 µM); MIC ([2]; read-out: MRSA MIC): 8 µg/mL (≈ 24.2 µM)
CC(=O)c1ccc(-c2c(-c3ccccn3)nc3n2CCC3)cc1 [compound 973]	–	–	–	MIC ([1]; read-out: VRE MIC): > 32 µg/mL; activity against MRSA, in words [2]: not tolerated; MIC ([2]; read-out: MRSA MIC): > 32 µg/mL
Cc1cccc(-c2c(-c3ccccn3)nc3n2CCC3)c1 [compound 976]	–	–	–	MIC ([1]; read-out: VRE MIC): 32 µg/mL (≈ 116 µM); MIC ([2]; read-out: MRSA MIC): 8 µg/mL (≈ 29.1 µM)
Cc1ccccc1-c1c(-c2ccccn2)nc2n1CCC2 [compound 977]	–	–	–	MIC ([1]; read-out: VRE MIC): 32 µg/mL (≈ 116 µM); MIC ([2]; read-out: MRSA MIC): 32 µg/mL (≈ 116 µM)
CC(C)CN(c1ccc(F)cc1)c1c(-c2ccccn2)nc2cnccn12 [compound 1035]	–	–	–	MIC ([2]; read-out: MRSA MIC): > 32 µg/mL; MIC ([3]; read-out: MSSA MIC): > 32 µg/mL
CC(C)CN(c1ccc(F)cc1)c1c(-c2ccccn2)nc2cccnn12 [compound 1036]	–	–	–	MIC ([2]; read-out: MRSA MIC): 32 µg/mL (≈ 88.5 µM); MIC ([3]; read-out: MSSA MIC): 32 µg/mL (≈ 88.5 µM)
CC(C)CN(c1ccc(F)cc1)c1c(-c2ccccn2)nc2ncccn12 [compound 1038]	–	–	–	MIC ([2]; read-out: MRSA MIC): 6 µg/mL (≈ 16.6 µM); MIC ([3]; read-out: MSSA MIC): 8 µg/mL (≈ 22.1 µM)
CC(C)CN(c1ccc(F)cc1)c1c(-c2ccccn2)nc2ccncn12 [compound 1039]	–	–	–	MIC ([2]; read-out: MRSA MIC): > 32 µg/mL; MIC ([3]; read-out: MSSA MIC): > 32 µg/mL
CC(C)CN(Cc1c(-c2ccccn2)nc2ccccn12)c1ccc(F)cc1 [compound 1040]	–	–	–	MIC ([2]; read-out: MRSA MIC): 32 µg/mL (≈ 85.5 µM); MIC ([3]; read-out: MSSA MIC): > 32 µg/mL

Now from value to molecule, other results behind:

MIC ([1]; read-out: VRE MIC (UCL)) [µg/mL]	MIC ([2]; UCL, read-out: MRSA MIC (UCL)) [µg/mL]	MRSA MIC [2] [µg/mL]	SMILES	further results
–	–	> 32	COc1ccn2c(Nc3ccc4c(c3)OCCO4)c(-c3c[nH]cn3)nc2c1 [compound 866]	VRE MIC [1]: > 32 µg/mL
–	–	> 32	COc1ccc2nc(-c3c[nH]cn3)c(Nc3ccc4c(c3)OCCO4)n2c1 [compound 867]	VRE MIC [1]: > 32 µg/mL
–	–	> 32	COc1cccc(-c2nc3ccccn3c2N(CC(C)C)c2ccc(F)cc2)n1 [compound 1025]	MSSA MIC [3]: > 32 µg/mL
–	–	> 32	CC(C)CN(c1ccc(F)cc1)c1c(-c2ccccn2)nc2ccc(S(C)(=O)=O)cn12 [compound 1037]	MSSA MIC [3]: > 32 µg/mL
–	–	> 32	N#Cc1ccc(-c2nc(-c3ccccn3)c[nH]2)cc1 [compound 1102]	MSSA MIC [3]: > 32 µg/mL
–	–	> 32	N#Cc1ccc(-c2c(-c3ccccn3)nc3cccnn23)cc1 [compound 1103]	MSSA MIC [3]: > 32 µg/mL
–	–	> 32	N#Cc1ccc(-c2c(-c3ccccn3)nc3ccccn23)cc1 [compound 1104]	MSSA MIC [3]: > 32 µg/mL
–	–	> 32	N#Cc1ccc(-c2c(-c3ccccn3)nc3ncccn23)cc1 [compound 1105]	MSSA MIC [3]: > 32 µg/mL
–	–	> 32	N#Cc1ccc(-c2c(-c3ccccn3)nc3cnccn23)cc1 [compound 1106]	MSSA MIC [3]: > 32 µg/mL
–	–	> 32	N#Cc1ccc(-c2c(-c3ncccn3)nc3ccccn23)cc1 [compound 1107]	MSSA MIC [3]: > 32 µg/mL
